{"source": "paper PMC10176470", "about": "“Engaging a Non-catalytic Cysteine Residue Drives Potent and Selective Inhibition of Caspase-6” (Journal of the American Chemical Society, 2023)", "assay_type_in_all_cases": "cell-based", "key": {"[1]": {"biological_target": "proteins of HEK293T cells transiently overexpressing caspase-6 (Homo sapiens, UniProt P07814)", "settings": "exp_ref Probe; protein EPRS (P07814); analysis C6"}, "[2]": {"biological_target": "proteins of HEK293T cells transiently overexpressing caspase-6 (Homo sapiens, UniProt P09211)", "sequence (P09211 whole entry)": "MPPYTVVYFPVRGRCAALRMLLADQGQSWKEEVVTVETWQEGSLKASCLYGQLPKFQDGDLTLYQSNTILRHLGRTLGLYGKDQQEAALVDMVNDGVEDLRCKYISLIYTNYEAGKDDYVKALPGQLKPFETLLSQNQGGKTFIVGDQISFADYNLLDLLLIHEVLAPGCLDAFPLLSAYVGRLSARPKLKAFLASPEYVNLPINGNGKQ", "settings": "exp_ref Probe; protein GSTP1 (P09211); analysis C6"}, "[3]": {"biological_target": "proteins of HEK293T cells transiently overexpressing caspase-6 (Homo sapiens, UniProt P0DPI2)", "sequence (P0DPI2 42-268)": "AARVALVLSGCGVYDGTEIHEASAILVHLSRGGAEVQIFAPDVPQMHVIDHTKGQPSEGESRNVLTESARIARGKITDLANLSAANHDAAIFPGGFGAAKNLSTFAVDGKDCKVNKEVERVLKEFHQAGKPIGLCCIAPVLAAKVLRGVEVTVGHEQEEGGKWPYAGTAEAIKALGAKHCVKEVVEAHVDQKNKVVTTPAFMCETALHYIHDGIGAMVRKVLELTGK", "settings": "exp_ref Probe; protein C21orf33 (P30042); analysis C6"}, "[4]": {"biological_target": "proteins of HEK293T cells transiently overexpressing caspase-6 (Homo sapiens, UniProt P10599)", "settings": "exp_ref Probe; protein TXN (P10599); analysis C6"}, "[5]": {"biological_target": "proteins of HEK293T cells transiently overexpressing caspase-6 (Homo sapiens, UniProt P13645)", "sequence (P13645 whole entry)": "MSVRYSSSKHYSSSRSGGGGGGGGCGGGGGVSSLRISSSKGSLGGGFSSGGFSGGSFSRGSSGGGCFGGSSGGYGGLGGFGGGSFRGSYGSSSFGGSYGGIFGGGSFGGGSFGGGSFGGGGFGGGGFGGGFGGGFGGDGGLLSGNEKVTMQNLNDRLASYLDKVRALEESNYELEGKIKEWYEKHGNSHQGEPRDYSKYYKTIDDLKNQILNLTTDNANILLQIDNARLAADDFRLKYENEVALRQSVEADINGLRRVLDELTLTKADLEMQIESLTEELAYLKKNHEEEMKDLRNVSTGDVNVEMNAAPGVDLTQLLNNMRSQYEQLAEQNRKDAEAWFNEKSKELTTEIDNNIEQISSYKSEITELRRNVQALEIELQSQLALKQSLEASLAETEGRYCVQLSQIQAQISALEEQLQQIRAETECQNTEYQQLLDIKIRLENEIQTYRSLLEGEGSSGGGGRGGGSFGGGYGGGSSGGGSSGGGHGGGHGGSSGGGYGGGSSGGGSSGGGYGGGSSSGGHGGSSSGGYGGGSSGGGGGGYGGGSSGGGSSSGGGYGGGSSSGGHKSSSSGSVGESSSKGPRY", "settings": "Probe; protein KRT10 P13645"}, "[6]": {"biological_target": "proteins of HEK293T cells transiently overexpressing caspase-6 (Homo sapiens, UniProt P17844)", "settings": "exp_ref Probe; protein DDX5 (P17844); analysis C6"}, "[7]": {"biological_target": "proteins of HEK293T cells transiently overexpressing caspase-6 (Homo sapiens, UniProt P17987)", "sequence (P17987 whole entry)": "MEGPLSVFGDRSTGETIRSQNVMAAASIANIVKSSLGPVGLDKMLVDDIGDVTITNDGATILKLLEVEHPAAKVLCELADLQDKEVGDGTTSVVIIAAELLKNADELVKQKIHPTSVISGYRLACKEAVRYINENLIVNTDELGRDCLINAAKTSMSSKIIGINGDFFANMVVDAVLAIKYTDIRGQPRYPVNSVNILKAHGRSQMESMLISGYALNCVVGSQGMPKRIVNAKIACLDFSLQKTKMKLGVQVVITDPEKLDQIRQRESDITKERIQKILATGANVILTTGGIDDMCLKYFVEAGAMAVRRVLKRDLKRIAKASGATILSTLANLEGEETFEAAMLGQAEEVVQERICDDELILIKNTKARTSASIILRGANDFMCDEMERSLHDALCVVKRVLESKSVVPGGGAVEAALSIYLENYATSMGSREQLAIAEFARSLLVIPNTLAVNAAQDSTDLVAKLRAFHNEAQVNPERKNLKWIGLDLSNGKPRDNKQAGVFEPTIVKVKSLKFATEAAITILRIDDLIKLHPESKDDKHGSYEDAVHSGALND", "settings": "protein TCP1 (P17987)"}, "[8]": {"biological_target": "proteins of HEK293T cells transiently overexpressing caspase-6 (Homo sapiens, UniProt P23396)", "settings": "exp_ref Probe; protein RPS3 (P23396); analysis C6"}, "[9]": {"biological_target": "T1, proteins of HEK293T cells transiently overexpressing caspase-6 (Homo sapiens, UniProt P26583)", "T1 sequence (P26583 1-209)": "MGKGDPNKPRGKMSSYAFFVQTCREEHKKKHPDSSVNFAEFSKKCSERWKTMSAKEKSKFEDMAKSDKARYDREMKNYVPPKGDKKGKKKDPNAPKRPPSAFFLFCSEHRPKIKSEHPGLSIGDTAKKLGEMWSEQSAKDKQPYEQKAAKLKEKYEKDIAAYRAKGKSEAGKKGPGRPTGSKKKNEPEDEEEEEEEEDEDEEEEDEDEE"}, "[10]": {"biological_target": "proteins of HEK293T cells transiently overexpressing caspase-6 (Homo sapiens, UniProt P26639)", "sequence (P26639 whole entry)": "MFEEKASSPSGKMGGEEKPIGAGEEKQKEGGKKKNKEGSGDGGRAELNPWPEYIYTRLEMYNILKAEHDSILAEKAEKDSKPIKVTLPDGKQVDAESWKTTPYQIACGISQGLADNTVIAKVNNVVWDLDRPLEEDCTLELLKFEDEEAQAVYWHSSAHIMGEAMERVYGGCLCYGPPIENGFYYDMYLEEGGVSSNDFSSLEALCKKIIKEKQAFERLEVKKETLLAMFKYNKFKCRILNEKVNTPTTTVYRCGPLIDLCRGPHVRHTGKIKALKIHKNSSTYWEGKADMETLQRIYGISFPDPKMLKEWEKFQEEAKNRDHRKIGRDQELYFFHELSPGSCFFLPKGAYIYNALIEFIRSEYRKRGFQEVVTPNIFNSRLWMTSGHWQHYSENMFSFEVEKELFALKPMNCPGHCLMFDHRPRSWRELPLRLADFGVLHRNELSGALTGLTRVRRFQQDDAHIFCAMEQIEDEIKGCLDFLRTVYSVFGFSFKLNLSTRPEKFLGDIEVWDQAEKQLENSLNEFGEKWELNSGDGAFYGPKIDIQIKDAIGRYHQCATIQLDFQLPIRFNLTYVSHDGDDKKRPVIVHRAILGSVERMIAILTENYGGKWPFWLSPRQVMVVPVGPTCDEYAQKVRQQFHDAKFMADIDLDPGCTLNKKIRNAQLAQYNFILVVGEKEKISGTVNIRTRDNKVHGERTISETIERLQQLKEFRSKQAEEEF", "settings": "exp_ref Probe; protein TARS (P26639); analysis C6"}, "[11]": {"biological_target": "proteins of HEK293T cells transiently overexpressing caspase-6 (Homo sapiens, UniProt P27348)", "sequence (P27348 whole entry)": "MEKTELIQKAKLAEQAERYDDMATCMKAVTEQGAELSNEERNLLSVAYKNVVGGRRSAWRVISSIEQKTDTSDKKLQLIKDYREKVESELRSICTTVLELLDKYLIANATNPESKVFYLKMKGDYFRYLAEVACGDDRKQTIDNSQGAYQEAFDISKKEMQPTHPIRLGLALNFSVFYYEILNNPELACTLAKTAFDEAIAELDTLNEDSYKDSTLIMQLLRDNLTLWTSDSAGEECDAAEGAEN", "settings": "exp_ref Probe; protein YWHAQ (P27348); analysis C6"}, "[12]": {"biological_target": "proteins of HEK293T cells transiently overexpressing caspase-6 (Homo sapiens, UniProt P36871)", "settings": "protein PGM1 (P36871); exp_ref Probe; analysis C6"}, "[13]": {"biological_target": "proteins of HEK293T cells transiently overexpressing caspase-6 (Homo sapiens, UniProt P49189)", "sequence (P49189 whole entry)": "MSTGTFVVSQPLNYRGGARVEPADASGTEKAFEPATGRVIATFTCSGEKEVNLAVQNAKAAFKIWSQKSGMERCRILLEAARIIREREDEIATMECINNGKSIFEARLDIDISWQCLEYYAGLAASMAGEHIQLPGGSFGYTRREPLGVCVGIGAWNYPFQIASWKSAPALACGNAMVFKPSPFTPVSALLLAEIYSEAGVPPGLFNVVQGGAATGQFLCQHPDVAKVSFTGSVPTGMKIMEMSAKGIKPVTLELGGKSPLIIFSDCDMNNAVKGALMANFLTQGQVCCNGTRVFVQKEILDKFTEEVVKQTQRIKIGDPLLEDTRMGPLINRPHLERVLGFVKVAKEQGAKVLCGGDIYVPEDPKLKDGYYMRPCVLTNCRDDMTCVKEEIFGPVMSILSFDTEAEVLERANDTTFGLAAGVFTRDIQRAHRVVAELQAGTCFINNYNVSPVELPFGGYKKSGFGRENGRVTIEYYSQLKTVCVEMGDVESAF", "settings": "exp_ref Probe; protein ALDH9A1 (P49189); analysis C6"}, "[14]": {"biological_target": "proteins of HEK293T cells transiently overexpressing caspase-6 (Homo sapiens, UniProt P49368)", "settings": "exp_ref Probe; protein CCT3 (P49368); analysis C6"}, "[15]": {"biological_target": "proteins of HEK293T cells transiently overexpressing caspase-6 (Homo sapiens, UniProt P52292)", "settings": "exp_ref Probe; protein KPNA2 (P52292); analysis C6"}, "[16]": {"biological_target": "proteins of HEK293T cells transiently overexpressing caspase-6 (Homo sapiens, UniProt P55072)", "settings": "exp_ref Probe; protein VCP (P55072); analysis C6"}, "[17]": {"biological_target": "proteins of HEK293T cells transiently overexpressing caspase-6 (Homo sapiens, UniProt P62826)", "settings": "exp_ref Probe; protein RAN (P62826); analysis C6"}, "[18]": {"biological_target": "proteins of HEK293T cells transiently overexpressing caspase-6 (Homo sapiens, UniProt P62937)", "settings": "exp_ref Probe; protein PPIA (P62937); analysis C6"}, "[19]": {"biological_target": "proteins of HEK293T cells transiently overexpressing caspase-6 (Homo sapiens, UniProt Q14974)", "sequence (Q14974 whole entry)": "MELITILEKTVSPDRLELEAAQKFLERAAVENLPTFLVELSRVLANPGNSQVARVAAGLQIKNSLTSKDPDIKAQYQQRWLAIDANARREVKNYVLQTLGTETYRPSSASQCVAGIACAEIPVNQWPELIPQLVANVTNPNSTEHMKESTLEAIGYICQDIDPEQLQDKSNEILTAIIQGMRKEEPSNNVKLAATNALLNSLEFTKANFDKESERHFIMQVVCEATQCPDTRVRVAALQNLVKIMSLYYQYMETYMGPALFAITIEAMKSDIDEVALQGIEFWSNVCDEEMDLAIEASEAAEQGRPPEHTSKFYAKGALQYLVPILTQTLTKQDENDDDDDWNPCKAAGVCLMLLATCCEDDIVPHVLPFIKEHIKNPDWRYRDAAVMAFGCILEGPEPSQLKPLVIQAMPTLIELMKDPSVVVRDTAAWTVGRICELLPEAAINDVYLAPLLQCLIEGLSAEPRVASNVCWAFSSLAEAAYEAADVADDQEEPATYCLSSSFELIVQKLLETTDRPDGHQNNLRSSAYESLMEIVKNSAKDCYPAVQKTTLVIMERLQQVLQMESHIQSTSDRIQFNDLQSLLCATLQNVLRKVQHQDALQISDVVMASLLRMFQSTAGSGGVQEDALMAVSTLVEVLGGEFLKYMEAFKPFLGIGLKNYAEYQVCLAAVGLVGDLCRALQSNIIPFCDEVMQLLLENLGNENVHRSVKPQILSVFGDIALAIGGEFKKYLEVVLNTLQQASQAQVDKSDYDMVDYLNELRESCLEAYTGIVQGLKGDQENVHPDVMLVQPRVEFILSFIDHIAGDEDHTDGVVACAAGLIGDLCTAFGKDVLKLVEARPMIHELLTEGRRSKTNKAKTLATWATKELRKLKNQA", "settings": "protein KPNB1 (Q14974)"}, "[20]": {"biological_target": "proteins of HEK293T cells transiently overexpressing caspase-6 (Homo sapiens, UniProt Q96AG4)", "settings": "protein LRRC59 (Q96AG4); exp_ref Probe; analysis C6"}, "[21]": {"biological_target": "proteins of HEK293T cells transiently overexpressing caspase-6 (Homo sapiens, UniProt Q9NZI8)", "sequence (Q9NZI8 whole entry)": "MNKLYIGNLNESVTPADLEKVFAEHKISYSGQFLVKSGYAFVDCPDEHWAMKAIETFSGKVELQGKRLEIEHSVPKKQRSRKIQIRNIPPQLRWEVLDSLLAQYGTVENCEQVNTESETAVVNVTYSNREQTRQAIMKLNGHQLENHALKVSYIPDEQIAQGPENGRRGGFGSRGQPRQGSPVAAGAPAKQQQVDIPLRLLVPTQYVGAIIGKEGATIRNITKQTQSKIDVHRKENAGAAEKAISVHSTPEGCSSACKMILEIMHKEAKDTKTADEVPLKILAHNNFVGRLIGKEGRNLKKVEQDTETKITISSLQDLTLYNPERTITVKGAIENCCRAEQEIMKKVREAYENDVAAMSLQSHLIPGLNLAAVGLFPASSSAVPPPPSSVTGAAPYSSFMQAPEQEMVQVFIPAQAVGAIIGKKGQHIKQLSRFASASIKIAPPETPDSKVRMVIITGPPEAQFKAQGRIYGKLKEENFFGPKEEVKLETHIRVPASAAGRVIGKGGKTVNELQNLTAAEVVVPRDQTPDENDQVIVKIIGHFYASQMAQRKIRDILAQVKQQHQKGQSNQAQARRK", "settings": "Probe; protein IGF2BP1 Q9NZI8"}, "[22]": {"biological_target": "proteins of HEK293T cells transiently overexpressing caspase-6 (Homo sapiens, UniProt Q9P2E9)", "settings": "exp_ref Probe; protein RRBP1 (Q9P2E9); analysis C6"}, "[23]": {"biological_target": "proteins of HEK293T cells transiently overexpressing caspase-6 (Homo sapiens, UniProt Q9UJU6)", "sequence (Q9UJU6 whole entry)": "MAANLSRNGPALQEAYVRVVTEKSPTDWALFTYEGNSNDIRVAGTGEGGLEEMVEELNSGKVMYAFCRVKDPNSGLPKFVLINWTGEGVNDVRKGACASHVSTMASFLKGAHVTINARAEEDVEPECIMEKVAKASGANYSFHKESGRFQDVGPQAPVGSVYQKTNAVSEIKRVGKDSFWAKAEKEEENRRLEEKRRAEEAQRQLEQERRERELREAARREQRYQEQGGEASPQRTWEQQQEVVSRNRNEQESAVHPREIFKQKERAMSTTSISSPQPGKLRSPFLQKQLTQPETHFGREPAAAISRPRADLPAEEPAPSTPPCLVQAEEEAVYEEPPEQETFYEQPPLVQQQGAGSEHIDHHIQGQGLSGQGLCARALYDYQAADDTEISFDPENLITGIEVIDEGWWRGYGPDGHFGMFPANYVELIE", "settings": "Probe; protein DBNL Q9UJU6"}, "[24]": {"biological_target": "proteins of HEK293T cells transiently overexpressing caspase-6 (Homo sapiens, UniProt Q9Y490)", "settings": "exp_ref Probe; protein TLN1 (Q9Y490); analysis C6"}, "[25]": {"test_system": "proteins of HEK293T cells transiently overexpressing caspase-6", "settings": "exp_ref Probe; protein CBSL (P0DN79); analysis C6"}}}
{"smiles": "C#CCOc1ccc([C@@H]2C[C@@H](C(=O)Nc3ccc(OC(F)(F)F)cc3)CN(S(=O)(=O)C=C)C2)cc1", "note": "(relative stereo) [13-t]", "values": [{"measurement": "enrich.exp.med", "setting": "[1]", "result": 0.5173}, {"measurement": "enrich.exp.med", "setting": "[2]", "result": 0.03311}, {"measurement": "enrich.exp.med", "setting": "[3]", "result": -0.3681}, {"measurement": "enrich.exp.med", "setting": "[4]", "result": 0.866}, {"measurement": "enrich.exp.med", "setting": "[5]", "result": -7.844}, {"measurement": "enrich.exp.med", "setting": "[6]", "result": -0.0188}, {"measurement": "enrich.exp.med", "setting": "[7]; exp_ref Probe, analysis C6", "result": 0.8619}, {"measurement": "enrich.exp.med.lin", "setting": "[7]", "result": 1.8174}, {"measurement": "enrich.exp.med.log2", "setting": "[7]", "result": 0.8619}, {"measurement": "enrich.exp.med", "setting": "[8]", "result": 0.6101}, {"measurement": "enrich.exp.med", "setting": "[9]; Probe, protein HMGB2 P26583", "result": -1.024}, {"measurement": "enrich.exp.med.lin", "setting": "[9]; protein HMGB2 (P26583)", "result": 0.4916}, {"measurement": "enrich.exp.med.log2", "setting": "[9]; protein HMGB2 (P26583)", "result": -1.024}, {"measurement": "enrich.exp.med", "setting": "[10]", "result": 0.1344}, {"measurement": "enrich.exp.med", "setting": "[11]", "result": 0.7591}, {"measurement": "enrich.exp.med", "setting": "[12]", "result": 1.9053}, {"measurement": "enrich.exp.med", "setting": "[13]", "result": 0.2139}, {"measurement": "enrich.exp.med", "setting": "[14]", "result": 0.6394}, {"measurement": "enrich.exp.med", "setting": "[15]", "result": 0.5159}, {"measurement": "enrich.exp.med", "setting": "[16]", "result": -0.3231}, {"measurement": "enrich.exp.med", "setting": "[17]", "result": 0.5777}, {"measurement": "enrich.exp.med", "setting": "[18]", "result": -0.06908}, {"measurement": "enrich.exp.med", "setting": "[19]; exp_ref Probe, analysis C6", "result": 0.7787}, {"measurement": "enrich.exp.med.lin", "setting": "[19]", "result": 1.716}, {"measurement": "enrich.exp.med.log2", "setting": "[19]", "result": 0.7787}, {"measurement": "enrich.exp.med", "setting": "[20]", "result": 2.108}, {"measurement": "enrich.exp.med", "setting": "[21]", "result": -0.7898}, {"measurement": "enrich.exp.med", "setting": "[22]", "result": 0.4694}, {"measurement": "enrich.exp.med", "setting": "[23]", "result": -0.5155}, {"measurement": "enrich.exp.med", "setting": "[24]", "result": 0.6042}, {"measurement": "enrich.exp.med", "setting": "[25]", "result": -0.1387}]}
